Data as given in the supplement of paper PMC5579334.
± gives the standard deviation of the averaged measurements.

Columns and labels:
HS-PSS [1] = assay: drug sensitivity score (DSS, CellTiter-Glo viability, 72 h) (DSS (dimensionless)); higher = more sensitive; extreme values may be limits of the assay
Procedure, shortened: (§1)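 MPNST cell lines and primary human Schwann cells (750–1000 cells per well) went into 384-well plates preprinted with each compound at five concentrations in 10-fold steps. Plates were incubated 72 h at 37 °C, 5% CO2. Viability was read as CellTiter-Glo ATP luminescence, scaled between vehicle and positive-control wells, with duplicates averaged where present. Percent inhibition is at the top concentration; drug sensitivity score and relative IC50 (censored at top concentration) come from four-parameter logistic fits.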

HS-Sch-2 [2] = assay: as above
Procedure, shortened: as §1

[3] = tested on: HSC1 (primary human Schwann cells); assay: as above
Procedure, shortened: as §1

[4] = tested on: HSC2 (primary human Schwann cells); assay: as above
Procedure, shortened: as §1

S1507-2 [5] = assay: as above
Procedure, shortened: as §1

S462 [6] = assay: as above
Procedure, shortened: as §1

ST8814 [7] = assay: as above
Procedure, shortened: as §1

STS26T [8] = assay: as above
Procedure, shortened: as §1

YST-1 [9] = assay: as above
Procedure, shortened: as §1

HS-PSS [10] = assay: drug sensitivity score (DSS, CellTox-Green cytotoxicity, 72 h) (DSS (dimensionless)); higher = more cytotoxic; extreme values may be limits of the assay
Procedure, shortened: (§2)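 MPNST cell lines and primary human Schwann cells were incubated 72 h at 37 °C in 384-well plates holding five 10-fold compound dilutions. CellTox-Green was added before seeding at a final 1:1000 dilution and reported fluorescence from DNA released by disrupted cells. Signals were scaled to vehicle and positive-control wells, and cultures failing plate quality control were dropped. Drug sensitivity score and relative IC50 come from four-parameter logistic fits, with IC50 censored at the top concentration.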

[11] = tested on: HSC1 (primary human Schwann cells); assay: as above
Procedure, shortened: as §2

[12] = tested on: HSC2 (primary human Schwann cells); assay: as above
Procedure, shortened: as §2

S1507-2 [13] = assay: as above
Procedure, shortened: as §2

ST8814 [14] = assay: as above
Procedure, shortened: as §2

STS26T [15] = assay: as above
Procedure, shortened: as §2

HS-PSS [16] = assay: % inhibition of CellTiter-Glo viability at highest tested concentration (72 h), relative to DMSO and benzethonium chloride controls; higher = more inhibition
Procedure, shortened: as §1

HS-Sch-2 [17] = assay: as above
Procedure, shortened: as §1

[18] = tested on: HSC1 (primary human Schwann cells); assay: as above
Procedure, shortened: as §1

[19] = tested on: HSC2 (primary human Schwann cells); assay: as above
Procedure, shortened: as §1

S1507-2 [20] = assay: as above
Procedure, shortened: as §1

S462 [21] = assay: as above
Procedure, shortened: as §1

ST8814 [22] = assay: as above
Procedure, shortened: as §1

STS26T [23] = assay: as above
Procedure, shortened: as §1

YST-1 [24] = assay: as above
Procedure, shortened: as §1

| Structure (SMILES) | drug sensitivity score (HS-PSS [1]) | drug sensitivity score (HS-Sch-2 [2]) | drug sensitivity score [3] | drug sensitivity score [4] | drug sensitivity score (S1507-2 [5]) | drug sensitivity score (S462 [6]) | drug sensitivity score (ST8814 [7]) | drug sensitivity score (STS26T [8]) | drug sensitivity score (YST-1 [9]) | drug sensitivity score (HS-PSS [10]) | drug sensitivity score [11] | drug sensitivity score [12] | drug sensitivity score (S1507-2 [13]) | drug sensitivity score (ST8814 [14]) | drug sensitivity score (STS26T [15]) | % inhibition (HS-PSS [16]) [%] | % inhibition (HS-Sch-2 [17]) [%] | % inhibition [18] [%] | % inhibition [19] [%] | % inhibition (S1507-2 [20]) [%] | % inhibition (S462 [21]) [%] | % inhibition (ST8814 [22]) [%] | % inhibition (STS26T [23]) [%] | % inhibition (YST-1 [24]) [%] |
| --- | --- | --- | --- | --- | --- | --- | --- | --- | --- | --- | --- | --- | --- | --- | --- | --- | --- | --- | --- | --- | --- | --- | --- | --- |
| CC1=C(/C=C/C(C)=C/C=C/C(C)=C/C(=O)O)C(C)(C)CCC1 [Tretinoin] (max concentration tested 10000 nM) | 0 | 0 | 3.65 | 1.99 | 2.06 ± 2.6 | 0 | 1.48 | 0.0098 | 0 | 0 | 0 | 0 | 0.483 ± 0.68 | 0 | 0 | -12.1 | -3.32 | 32.9 | 20.1 | 22.8 ± 16 | 4.5 ± 5.9 | 19.1 | 12.3 | -8.64 |
| COc1cccc2c1C(=O)c1c(O)c3c(c(O)c1C2=O)C[C@@](O)(C(=O)CO)C[C@@H]3O[C@H]1C[C@H](N)[C@H](O)[C@H](C)O1 [Doxorubicin] (max concentration tested 1000 nM) | 7.71 | 10.2 | 11.9 | 11.2 | 10.6 ± 1.9 | 13.1 ± 0.35 | 9.59 | 12.7 | 13.9 | 0.81 | 0.0904 | 18 | 0.0502 ± 0.071 | 0 | 0.331 | 96.1 | 100 | 99.1 | 99.6 | 83.5 ± 6.7 | 98.561 ± 0.012 | 96.1 | 98.4 | 98.3 |
| CCn1c(-c2nonc2N)nc2cnc(Oc3cccc(NC(=O)c4ccc(OCCN5CCOCC5)cc4)c3)cc21 (max concentration tested 10000 nM) | 4.2 | 6.03 | 16.9 | 18.1 | 3.11 ± 0.81 | 3.9 ± 0.086 | 2.57 | 5.65 | 6.84 | 0 | 1.62 | 0.268 | 2.06 ± 2.4 | 0 | 5.6 | 47.1 | 58 | 70.6 | 71.3 | 36.1 ± 2.2 | 43.6 ± 3.2 | 34.9 | 50.7 | 49.8 |
| CNC(=O)c1cc(Oc2ccc(NC(=O)Nc3cc(C(C)(C)C)nn3-c3ccc4ncccc4c3)c(F)c2)ccn1 [Rebastinib] (max concentration tested 1000 nM) | 0 | 0 | 0 | 0 | 0 | 0 | 0 | 0 | 0 | 0 | 0 | 0 | 0 | 0 | 0 | -1.59 | -12.3 | 0.317 | -5.07 | -4.17 ± 6.4 | -0.0982 ± 1.4 | -2.38 | -1.27 | 0.76 |
| O=C1NC(=O)[C@@H](c2cn3c4c(cccc24)CCC3)[C@@H]1c1c[nH]c2ccccc12 [Tivantinib] (max concentration tested 1000 nM) | 2.27 | 6 | 3.89 | 4.03 | 5.33 ± 1.5 | 5.15 ± 0.31 | 5 | 6.92 | 6.48 | 0.01 | 1.43 | 2.53 | 4.49 ± 1.2 | 4.59 | 7.73 | 36.1 | 82.9 | 62.9 | 60.3 | 80 ± 5.9 | 98.43 ± 0.21 | 93 | 98.2 | 78.2 |
| O=NN(CCCl)C(=O)NCCCl [Carmustine] (max concentration tested 10000 nM) | 0.02 | 0 | 0 | 0 | 0 | 0 | 0 | 0 | 0 | 0 | 0 | 0 | 0.439 ± 0.62 | 0 | 0 | 10.6 | 2.86 | 0.41 | -7.14 | -5.49 ± 3.8 | -7.97 ± 1.3 | -3.77 | -1.28 | 1.73 |
| Cn1cnc2c(F)c(Nc3ccc(Br)cc3Cl)c(C(=O)NOCCO)cc21 [Selumetinib] (max concentration tested 10000 nM) | 0.02 | 2.54 | 2.51 | 3.74 | 7.78 ± 3.3 | 5.86 ± 0.93 | 5.82 | 4.18 | 0 | 0 | 0 | 0 | 0.984 ± 0.39 | 1.43 | 0 | 12.8 | 35.6 | 41.3 | 44.1 | 50.8 ± 4.4 | 51.8 ± 5.1 | 51.4 | 33.6 | 5.28 |
| NC(=O)c1ccc(I)c([N+](=O)[O-])c1 [Iniparib] (max concentration tested 10000 nM) | 0 | 0 | 0 | 0 | 0 | 0 | 0 | 0 | 0 | 0 | 0 | 0 | 6.29 ± 8.9 | 0 | 0.221 | -1.31 | 1.26 | -4.93 | 1.97 | 9.46 ± 1.8 | 13.9 ± 7.7 | -1.13 | 7.72 | -4.35 |
| O=C(CCCCCCC(=O)Nc1ccc([C@H]2O[C@@H](CSc3nc(-c4ccccc4)c(-c4ccccc4)o3)C[C@@H](c3ccc(CO)cc3)O2)cc1)NO [Tubacin] (max concentration tested 10000 nM) | 4.53 | 3.9 | 3.73 | 3.24 | 3.73 ± 1 | 3.54 ± 1.2 | 3.74 | 3.13 | 4.41 | 0.31 | 0 | 0 | 0.0428 ± 0.06 | 2.33 | 3.25 | 48 | 63.7 | 70 | 56.6 | 67.9 ± 7.1 | 64.9 ± 20 | 64.2 | 60.2 | 56.1 |
| Nc1ccn([C@@H]2O[C@H](CO)[C@@H](O)C2(F)F)c(=O)n1 [Gemcitabine] (max concentration tested 1000 nM) | 14.7 | 25.2 | 26.5 | 27.7 | 31.7 ± 4.1 | 40.2 ± 1 | 27.7 | 28.3 | 19.7 | 7.61 | 23.3 | 18.5 | 14.3 ± 2 | 21 | 19.3 | 70.2 | 75 | 85 | 84.5 | 86.1 ± 3.8 | 99.9 ± 2.2 | 96.5 | 83.8 | 76.7 |
| Clc1ccc(Nc2nnc(Cc3ccncc3)c3ccccc23)cc1 [Vatalanib] (max concentration tested 10000 nM) | 0 | 1.77 | 0 | 0.0903 | 0 | 0 | 0 | 0 | 1.52 | 0 | 0 | 0 | 0 | 0 | 0 | 11.8 | 12.3 | 5.92 | 13.4 | 2.66 ± 4.9 | 5.29 ± 6.4 | 1.01 | 6.33 | 10.3 |
| CN1CCN(CCOc2cc(OC3CCOCC3)c3c(Nc4c(Cl)ccc5c4OCO5)ncnc3c2)CC1 [Saracatinib] (max concentration tested 10000 nM) | 6.08 | 3.07 | 7.06 | 3.21 | 7.04 ± 1.5 | 3.91 ± 0.7 | 5.63 | 5.09 | 0.09 | 1.13 | 0 | 6.91 | 9.49 ± 1.6 | 5.67 | 1.58 | 67.5 | 51.7 | 50.3 | 37.1 | 74.8 ± 2.1 | 36.2 ± 0.27 | 55.2 | 50.2 | 14.6 |
| COc1cc2c(NC3CCN(C(C)C)CC3)nc(N3CCC(F)(F)CC3)nc2cc1OCCCN1CCCC1 [UNC0642] (max concentration tested 10000 nM) | 6.56 | 6.08 | 0 | 0 | 8.23 ± 0.62 | 5.99 ± 0.77 | 5.87 | 5.57 | 5.26 | 4.78 | 0 | 0 | 7.07 ± 1.3 | 5.37 | 6.03 | 99.3 | 100 | 7.89 | 7.25 | 101.9 ± 0.52 | 93 ± 3 | 99.1 | 96.5 | 94.9 |
